From publication PMC3842668, “Dual-acting stapled peptides target both HIV-1 entry and assembly” (Retrovirology, 2013)
Where two headings read alike, the source gives them in different places. Where a SMILES comes first, the peptide text is derived from it. Bridges are numbered along the chain shown (N, C = ends). [ ]: non-standard residue; d: D form. R8 = C=CCCCCCC[C@@](C)(N)C(=O)O; S5 = C=CCCC[C@](C)(N)C(=O)O

Columns and labels:
HIV-1 CA = target: T1, HIV-1 CA (Human immunodeficiency virus type 1 group M subtype B, UniProt P12493); assay: Turbidity-based in vitro CA assembly assay; type: biochemical; conditions: turbidity at 350 nm; for Effect on CA assembly, turbidity (in words): 50 mM NaPO4 pH 8.0; for initial rate of CA assembly: compound:CA ratio 2:1, mean ± standard deviation from three experiments, DMSO control 216 ± 6.23
T1 construct: Wild-type HIV-1 CA was overexpressed and purified as previously described; made in house
Procedure: The ability of stapled peptides to disrupt CA-CA interactions was also assessed using a turbidity-based in vitro CA assembly assay. This assay is based on the observation that the turbidity of a CA-containing solution increases in proportion to the extent of assembly.
Wild-type HIV-1 CA was overexpressed and purified as previously described. […] Turbidity assays were carried out in triplicate using a Beckman spectrophotometer at a wavelength of 350 nm to monitor HIV-1 in vitro assembly conducted at ambient temperatures. Protein samples were prepared in an assembly buffer [50 mM NaPO4 pH 8.0]. In vitro assembly reactions were prepared with 250 μl of assembly buffer containing 60 μM protein. To catalyze CA assembly 250 μl of an assembly buffer containing 5M NaCl was added. The solution was mixed by agitation and transferred a cuvette for a total delay of 20 seconds. Assembly was monitored every 10 sec for the first min and every min thereafter for a total 10 min. Assembly reactions with stapled peptides were incubated in the assembly buffer for 10 min and then centrifuged for 1 min to separate any insoluble fractions before catalyzing assembly.

HIV-1 pNL4-3 = assay: Virus assembly and release assay, Gag processing; type: cell-based; conditions: 293T cells transfected with pNL4-3, peptide for 16–20 h, ratio of Pr55Gag to p24
Procedure: This inhibition was specific to HIV-1 as the release of another lentivirus, equine infectious anemia virus (EIAV), was not inhibited. In this study we investigated whether i,i + 7 stapled CAI-derived peptides have any effect on virus release. 293T cells were transfected with the full-length HIV-1 molecular clone pNL4-3, treated with stapled peptides for 16–20 h, and metabolically labeled with [^35S]Met/Cys. The cell- and virus-associated proteins were immunoprecipitated with HIV-Ig.
Figure 6 i + 7 stapled peptides have no effect on HIV-1 release, but impair Gag processing. […] Cells were metabolically labeled with [^35S]Met/Cys for 2 h. Cells were lysed and virions were collected by ultracentrifugation. Cell and virus lysates were immunoprecipitated with HIV-Ig and subjected to SDS-PAGE. Protein band intensities were quantified by phosphorimager analysis, and HIV-1 release was calculated as the amount of virion-associated p24 relative to total (cell- plus virion-associated) Gag. (b) Accumulation of unprocessed Gag in cells was measured by calculating the ratio of Pr55^Gag to p24 in cells. P values were calculated by Student’s t-test, with P < 0.05 considered significant. N = 3, ± SD.
293T cells, plated at 3 × 10^5 cells/well in 12 well plates, were transfected with the HIV-1 molecular clone pNL4-3 [69]. […] One day posttransfection, cells were metabolically labeled with [^35S]Met/Cys for 2 h. The labeled virions were pelleted in an ultracentrifuge, and the virus and cell lysates were immunoprecipitated with pooled sera from HIV-1-infected patients (HIV-Ig, obtained from the ARP) and subjected to SDS-PAGE. Protein band intensities were quantified by phosphorimager analysis, and virus release was calculated as the amount of virion-associated Gag as a fraction of total (cell- plus virion-associated) Gag synthesized during the metabolic labeling period. Accumulation of Pr55^Gag in cells was measured by calculating the ratio of Pr55^Gag to p24 (CA).

HIV-1 pNL4-3 (WT) = type: cell-based
WT HIV-1 (NL4-3) = type: cell-based
[1] = system: HIV-1 V120Q/A327P Env mutant; type: cell-based
WT NL4-3 [2] = assay: Spreading virus replication in Jurkat T-cell line, RT activity, WT; type: cell-based, HIV-1; conditions: Jurkat cells transfected with pNL4-3 (WT), 37.5 μM peptide
WT NL4-3 [3] = assay: Virus replication in PBMC, WT; type: cell-based, HIV-1; conditions: PBMC from three donors, 30 μM peptide, RT activity
V120Q/A327P mutant = assay: Virus replication in PBMC, Env mutant; type: cell-based, HIV-1; conditions: PBMC from three donors, 30 μM peptide, RT activity
[4] = system: N-terminal and C-terminal V3 loop peptides; assay: ITC binding to N-terminal and C-terminal V3 loop peptides; parameters: species or system HIV-1; conditions: overlapping 15-mer V3 peptides
Procedure: (§1) We also used ITC to measure the binding affinity of the stapled peptides to full-length cyclic V3 loop peptide.
(§2) Full-length V3 peptide (Cat# 1840), cyclic V3 peptide (Cat# 1837) and 15-mer overlapping V3 peptides (Cat# 1832, 6282, 6283, 6284, 6285, 6287, 6288, 6289, 6290 and 6291, for amino acid sequence see HIV-1 Subtype B (MN) Env Peptides - Complete Set Cat# 6451) were obtained through the NIH ARP.
(§3) For forward titration, 90 μM full-length V3 peptide, full-length cyclic V3 peptide or 90 μM 15-mer V3 peptides were titrated into 4.5 μM of stapled or linear peptides. Reference measurements were performed by titrating 90 μM full-length V3 peptide, full-length cyclic V3 peptide or 15-mer V3 peptide into buffer without peptide. For reverse titration, 90 μM stapled peptide was titrated into 4.5 μM full-length V3 peptide, full-length cyclic V3 peptide or […]. Reference measurements were performed by titrating 90 μM stapled peptide into buffer without peptide.

[5] = target: tip of V3 loop (15-mer V3 tip peptide); assay: ITC binding to 15-mer V3 tip peptide; parameters: species or system HIV-1; conditions: 90 μM 15-mer V3 tip peptide titrated into 4.5 μM peptide, single-site model
Procedure: as §1, §2, §3

[6] = 50 μM peptide during 2 h infection, TZM-bl cells, luciferase two days post-infection

Ac-ISF-R8-QLLDYY-S5-QSGSK-amide (sidechain bridge or staple) [NYAD-46]
CC 50 (μM ± SD) in MT-2 (MT-2 cells): 10.6 ± 0.6 µM

Ac-RSFE-R8-LLDYYG-S5-SGS-amide (sidechain bridge or staple) [NYAD-65]
CC 50 (μM ± SD) in MT-2 (MT-2 cells): >116 µM

Ac-IRQGPKEPFRDYVDR-NH2 [NYAD-401, reference compound]
Effect on CA assembly, turbidity (in words) (HIV-1 CA): no observable effect on CA assembly | initial rate of CA assembly (HIV-1 CA): 223 ± 32.5 mOD/min

Ac-RSF-R8-RLLDYY-S5-ESGS-amide (sidechain bridge or staple) [NYAD-61]
CC 50 (μM ± SD) in MT-2 (MT-2 cells): 31.7 ± 1.4 µM

Ac-RRF-R8-ELLDYY-S5-ESGS-amide (sidechain bridge or staple) [NYAD-62]
CC 50 (μM ± SD) in MT-2 (MT-2 cells): 15.4 ± 0.2 µM

Ac-ISF-R8-ELLRYY-S5-R-amide (sidechain bridge or staple) [NYAD-56]
CC 50 (μM ± SD) in MT-2 (MT-2 cells): 16.4 ± 1.2 µM

Ac-ISF-R8-ELEDYY-S5-ESGS (sidechain bridge or staple) [NYAD-43]
CC 50 (μM ± SD) in MT-2 (MT-2 cells): >106.6 µM

Ac-ISFDELLDYYGESGS [NYAD-41]
% FAM (293T cells; FACS, 293T cells, 4 μM FAM-conjugated peptide, 20 h at 37°C, serum-free media, 0.25% Trypsin-EDTA 30 min): 1.43%

Ac-SK-R8-ELLDYY-S5-ESGS-amide (sidechain bridge or staple) [NYAD-64]
CC 50 (μM ± SD) in MT-2 (MT-2 cells): >109 µM

Ac-R-R8-FAELLD-S5-YGESGS-amide (sidechain bridge or staple) [NYAD-63]
CC 50 (μM ± SD) in MT-2 (MT-2 cells): >113 µM

ISF-R8-ELLNYY-S5-ESGS-amide (sidechain bridge or staple) [NYAD-57]
CC 50 (μM ± SD) in MT-2 (MT-2 cells): 39.6 ± 4.4 µM

CC[C@H](C)[C@H](NC(C)=O)C(=O)N[C@@H](CO)C(=O)N[C@@H](Cc1ccccc1)C(=O)N[C@]1(C)CCCCCCC=CCCC[C@@](C)(C(=O)N[C@@H](CCC(=O)O)C(=O)N[C@@H](CC(=O)O)C(=O)N[C@@H](CCC(=O)O)C(N)=O)NC(=O)[C@H](Cc2ccc(O)cc2)NC(=O)[C@H](C)NC(=O)[C@H](CCC(N)=O)NC(=O)[C@H](CC(C)C)NC(=O)[C@H](Cc2c[nH]c3ccccc23)NC(=O)[C@H](CCC(=O)O)NC1=O [NYAD-67] (Ac-ISF[R8]EWLQAY[S5]EDE-NH2; staple 4-11)
Effect on CA assembly, turbidity (in words) (HIV-1 CA): did not influence the rate or extent of CA assembly | initial rate of CA assembly (HIV-1 CA): 205 ± 18.89 mOD/min | Accumulation of cell-associated Pr55Gag (in words) (HIV-1 pNL4-3): modest accumulation of cell-associated Pr55^Gag | reduction in infectivity of virions produced from treated cells (HIV-1 pNL4-3 (WT)): two-log reduction in infectivity | fold reduction of virus infectivity, WT (WT HIV-1 (NL4-3)): > 40 fold | fold reduction of virus infectivity, V120Q/A327P double mutant [1]: ~ 2.5 fold | virus replication (in words) (WT NL4-3 [2]): completely blocked | virus replication (in words) (WT NL4-3 [3]): strongly inhibited replication of WT NL4-3 in PBMC | virus replication (in words) (V120Q/A327P mutant): showed some antiviral activity against the V120Q/A327P mutant | binding to N-terminal and C-terminal V3 loop peptides (in words) [4]: neither N-terminal nor C-terminal V3 loop peptides bind | Kd [5]: 8.92 ± 1.8 µM | % toxicity at that dose (number in parenthesis) (MT-2 cells): 0% | CC 50 (μM ± SD) in MT-2 (MT-2 cells): > 107.4 µM | Cell penetration (in words) (293T cells): penetrate cells less efficiently than NYAD-1

CC[C@H](C)[C@H](NC(C)=O)C(=O)N[C@@H](CO)C(=O)N[C@@H](Cc1ccccc1)C(=O)N[C@]1(C)CCCCCCC=CCCC[C@@](C)(C(=O)N[C@@H](CCC(=O)O)C(=O)N[C@@H](CC(=O)O)C(N)=O)NC(=O)[C@H](Cc2ccc(O)cc2)NC(=O)[C@H](Cc2ccc(O)cc2)NC(=O)[C@H](CC(=O)O)NC(=O)[C@H](CC(C)C)NC(=O)[C@H](CC(C)C)NC(=O)[C@H](CCC(=O)O)NC1=O [NYAD-66] (Ac-ISF[R8]ELLDYY[S5]ED-NH2; staple 4-11)
Effect on CA assembly, turbidity (in words) (HIV-1 CA): reduced the extent of CA assembly in a dose-dependent manner | initial rate of CA assembly (HIV-1 CA): 166 ± 18.91 mOD/min | Accumulation of cell-associated Pr55Gag (in words) (HIV-1 pNL4-3): modest accumulation of cell-associated Pr55^Gag | reduction in infectivity of virions produced from treated cells (HIV-1 pNL4-3 (WT); 293T producer cells treated with 50 μM peptide for two days, RT-normalized virus on TZM-bl, luciferase): four-fold | fold reduction of virus infectivity, WT (WT HIV-1 (NL4-3); [6]): around 3 fold | fold reduction of virus infectivity, V120Q/A327P double mutant [1, 6]: less than 2 fold | virus replication (in words) (WT NL4-3 [2]): significantly delayed | virus replication (in words) (WT NL4-3 [3]): strongly inhibited replication of WT NL4-3 in PBMC | virus replication (in words) (V120Q/A327P mutant): showed some antiviral activity against the V120Q/A327P mutant | % toxicity at that dose (number in parenthesis) (MT-2 cells): 0% | CC 50 (μM ± SD) in MT-2 (MT-2 cells): > 115 µM | Cell penetration (in words) (293T cells): penetrate cells less efficiently than NYAD-1

IRF-R8-QLLNYY-S5-ESGS-amide (sidechain bridge or staple) [NYAD-58]
CC 50 (μM ± SD) in MT-2 (MT-2 cells): 14.9 ± 1 µM

Ac-ISF-R8-EWLQYY-S5-R-amide (sidechain bridge or staple) [NYAD-33]
CC 50 (μM ± SD) in MT-2 (MT-2 cells): 9.2 ± 0.26 µM

Ac-ISF-R8-ELLDYY-S5-ESGSKKK-amide (sidechain bridge or staple) [NYAD-44]
CC 50 (μM ± SD) in MT-2 (MT-2 cells): 17.2 ± 1.4 µM

Ac-ISF-R8-ELLDYY-S5-EKSGSKD-amide (sidechain bridge or staple) [NYAD-55]
CC 50 (μM ± SD) in MT-2 (MT-2 cells): >89.7 µM
